Test results published in patent US10329269B2, “Indene derivatives and uses thereof” (MUSC FOUNDATION FOR RESEARCH DEVELOPMENT, priority 2017, dated 2019).
pEC50: −log10 of the molar value. Where two headings read alike, the source gives them in different places.

How the values were obtained:
Format in all cases: cell-based
[1] = system: PANC-1 pancreatic cancer cells; experiment: Bortezomib sensitization, cell viability in PANC-1 pancreatic cancer cells; conditions: PANC-1 cells; for pEC50: Homo sapiens, cell viability after 48 hour treatment; for fold increase in Btz sensitivity: compound at 1 μM vs DMSO, 48 hour
Method: (§1) Reference is made to FIG. 1. (A) The structures of novel derivatives E64FC26 and E64FC65 are shown. (B) Proteasome inhibitor (PI) resistant MM.1S BzR cells were treated with the E64FC26 at a concentration of 500 nM and a dose range of the PI bortezomib (Btz). Cell viability was measured after 24 hours of treatment. […] (C) PANC-1 pancreatic cancer cells were treated with the indicated derivative at a final concentration of 1 μM and a dose range of Btz. Cell viability was measured after a 48 hour treatment time. […] (D) Panels of pancreatic, ovarian, glioma, multiple myeloma, and normal cells were treated with E64FC26 and a dose range of the second generation proteasome inhibitor carfilzomib (Crflz) using a protocol similar to that described above for panels (B) and (C). Crflz EC50 values were extrapolated from dose curves conducted in the presence and absence of E64FC26 and a fold-change was calculated. Each data point represents the fold-change, or the degree of Crflz potentiation, for each cell line tested.

MM.1S BzR cells = experiment: Bortezomib sensitization, cell viability in PI-resistant MM.1S BzR cells; conditions: for pEC50: Homo sapiens, MM1.S, cell viability after 24 hours
Method: as §1

[2] = system: PANC-1 pancreatic cancer cells; experiment: Panobinostat (HDAC inhibitor) sensitization, cytotoxicity in PANC-1 pancreatic cancer cells; conditions: PANC-1 cells; for pEC50: Homo sapiens; for increase in panobinostat sensitivity (fold): 1 μM compound vs DMSO
Method: Reference is made to FIG. 3. (A) In PANC-1 pancreatic cancer cells, the cytotoxicity of each of the indicated HDAC inhibitors was evaluated in the presence and absence of 1 μM E64FC26. EC50 values are shown. (B) Similar experiments as described in (A) were conducted using T98G glioblastoma cells. EC50 values for each of the HDAC inhibitor in the presence and absence of 1 μM E64FC26. (C) Panels of the indicated tumor cell types were treated with a dose range of the HDAC inhibitor panobinostat in the presence and absence of 1 μM E64FC26. EC50 values were extrapolated and the relative effect of E64FC26 on panobinostat sensitivity was calculated. Each data point indicated the fold change in panobinostat EC50 for that particular cell line. (D) An example of full panobinostat dose response curves in PANC-1 pancreatic cancer cells are shown. PANC-1 cells were co-treated with DMSO vehicle control, 1 μM E64FC26, or 1 μM E64FC65.

[3] = compound at 1 μM, read-out: Btz EC50 in the presence of the compound
[4] = co-treated with 1 μM compound, read-out: panobinostat EC50 in the presence of the compound

| Compound | pEC50 [1, 3] | fold increase in Btz sensitivity [1] [fold] | fold increase in Btz sensitivity (MM.1S BzR cells; 500 nM compound vs DMSO, 24 hours) [fold] | pEC50 (MM.1S BzR cells; co-treatment with 500 nM compound, read-out: Btz EC50 in cells co-treated with the compound) | pEC50 [2, 4] | increase in panobinostat sensitivity (fold) [2] [fold] | pEC50 ([2]; panobinostat alone (DMSO vehicle), read-out: panobinostat EC50 in DMSO treated cells) | pEC50 ([1]; Btz alone (DMSO vehicle), read-out: Btz EC50 in the presence of DMSO vehicle control) | pEC50 (MM.1S BzR cells; Btz alone (DMSO vehicle), read-out: Btz EC50, control cells treated with DMSO vehicle) |
| --- | --- | --- | --- | --- | --- | --- | --- | --- | --- |
| CCCCCCCC/C=C1\C=C(C(F)(F)F)c2cc(O)c(O)cc21 [E64FC26] | 8.04 | 9.2 | 9.7 | 8.33 | 8.28 | 85.5 |  |  |  |
| Cc1[nH]c2ccccc2c1CCNCc1ccc(/C=C/C(=O)NO)cc1 [panobinostat, reference compound] |  |  |  |  |  |  | 6.34 |  |  |
| CCCCCC/C=C1\C=C(C(F)(F)F)c2cc3c(cc21)OCO3 [E64FC65, (5E)-7-(trifluoromethyl)-5-heptylidene-5H-indeno[5,6-d][1,3]dioxole] | 8.74 | 46.4 |  |  | 8.96 | 412 |  |  |  |
| CC(C)C[C@H](NC(=O)[C@H](Cc1ccccc1)NC(=O)c1cnccn1)B(O)O [Btz, bortezomib, reference compound] |  |  |  |  |  |  |  | 7.08 | 7.34 |
